# Experimental data: paper PMC261875, “Biochemical Characterization of DNA Damage Checkpoint Complexes: Clamp Loader and Clamp Complexes with Specificity for 5′ Recessed DNA” (PLoS Biology, 2003)
# Experiments:
# [1] = tested on: T1, RSR (Rad17–Rfc2–Rfc3–Rfc4–Rfc5) complex; test: bead pull-down of clamp-clamp loader-DNA ternary complex, Western blot; format: binding; conditions: 1 mM ATPγS, 7 mM MgCl2, pH 7.5, 30 °C; RHR clamp, human RPA, 5' recessed primer-template DNA; nonhydrolyzable ATP analog
# T1 construct: untagged
# [2] = tested on: T2, RFC (replication factor C); test: as above; format: binding; conditions: 1 mM ATPγS, 7 mM MgCl2, pH 7.5, 30 °C; PCNA clamp, human RPA, 3' recessed primer-template DNA; nonhydrolyzable ATP analog
# T2 construct: gene RFC1
# T2 sequence (P35251 whole entry): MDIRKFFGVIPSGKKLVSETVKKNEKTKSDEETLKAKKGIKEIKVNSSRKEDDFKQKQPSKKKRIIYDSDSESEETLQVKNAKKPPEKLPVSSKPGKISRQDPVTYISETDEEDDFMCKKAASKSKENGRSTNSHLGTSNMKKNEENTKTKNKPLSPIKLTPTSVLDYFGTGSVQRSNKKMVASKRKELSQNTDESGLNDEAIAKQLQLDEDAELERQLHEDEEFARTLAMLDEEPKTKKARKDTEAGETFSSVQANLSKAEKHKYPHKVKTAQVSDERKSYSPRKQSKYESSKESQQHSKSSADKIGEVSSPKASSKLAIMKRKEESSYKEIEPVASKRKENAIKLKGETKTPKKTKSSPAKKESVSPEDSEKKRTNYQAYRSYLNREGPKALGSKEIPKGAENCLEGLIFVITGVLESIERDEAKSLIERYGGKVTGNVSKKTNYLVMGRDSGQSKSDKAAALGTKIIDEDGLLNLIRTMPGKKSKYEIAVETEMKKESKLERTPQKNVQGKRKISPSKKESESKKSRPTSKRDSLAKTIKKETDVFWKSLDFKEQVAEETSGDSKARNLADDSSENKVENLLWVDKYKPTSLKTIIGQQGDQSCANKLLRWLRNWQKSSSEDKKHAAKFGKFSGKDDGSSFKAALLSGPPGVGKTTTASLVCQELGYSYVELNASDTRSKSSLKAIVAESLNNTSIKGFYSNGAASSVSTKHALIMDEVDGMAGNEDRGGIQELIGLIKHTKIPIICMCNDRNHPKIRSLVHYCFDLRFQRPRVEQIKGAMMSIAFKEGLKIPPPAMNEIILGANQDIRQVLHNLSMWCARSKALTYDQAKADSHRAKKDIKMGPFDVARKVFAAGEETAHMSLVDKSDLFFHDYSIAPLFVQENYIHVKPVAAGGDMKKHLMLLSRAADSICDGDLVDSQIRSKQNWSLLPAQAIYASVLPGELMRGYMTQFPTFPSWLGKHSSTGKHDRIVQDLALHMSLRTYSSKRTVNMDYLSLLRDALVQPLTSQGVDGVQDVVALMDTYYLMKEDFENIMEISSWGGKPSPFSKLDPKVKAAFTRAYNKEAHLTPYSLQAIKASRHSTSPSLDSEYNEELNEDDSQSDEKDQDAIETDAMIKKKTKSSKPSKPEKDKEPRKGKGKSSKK
# T2 sequence (P35250 whole entry, further chain): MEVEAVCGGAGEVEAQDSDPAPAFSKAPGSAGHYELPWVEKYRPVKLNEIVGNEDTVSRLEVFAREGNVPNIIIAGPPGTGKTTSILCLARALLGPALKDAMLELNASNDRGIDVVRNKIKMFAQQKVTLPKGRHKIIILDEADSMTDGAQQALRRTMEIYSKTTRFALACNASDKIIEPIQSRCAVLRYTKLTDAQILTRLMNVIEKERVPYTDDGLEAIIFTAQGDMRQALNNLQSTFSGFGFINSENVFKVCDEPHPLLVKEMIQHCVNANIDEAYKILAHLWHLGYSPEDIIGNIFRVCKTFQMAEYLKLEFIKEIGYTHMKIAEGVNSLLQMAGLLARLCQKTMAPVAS
# T2 sequence (P40938 whole entry, further chain): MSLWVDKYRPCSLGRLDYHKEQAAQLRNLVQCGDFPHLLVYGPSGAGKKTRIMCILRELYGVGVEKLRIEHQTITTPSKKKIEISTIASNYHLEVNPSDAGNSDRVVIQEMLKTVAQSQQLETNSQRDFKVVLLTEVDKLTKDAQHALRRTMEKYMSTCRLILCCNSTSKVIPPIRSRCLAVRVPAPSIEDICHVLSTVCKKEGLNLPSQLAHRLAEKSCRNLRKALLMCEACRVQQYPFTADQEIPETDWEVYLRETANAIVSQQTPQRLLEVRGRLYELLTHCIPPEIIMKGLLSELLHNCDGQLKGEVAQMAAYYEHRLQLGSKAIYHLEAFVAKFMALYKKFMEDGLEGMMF
# T2 sequence (P35249 whole entry, further chain): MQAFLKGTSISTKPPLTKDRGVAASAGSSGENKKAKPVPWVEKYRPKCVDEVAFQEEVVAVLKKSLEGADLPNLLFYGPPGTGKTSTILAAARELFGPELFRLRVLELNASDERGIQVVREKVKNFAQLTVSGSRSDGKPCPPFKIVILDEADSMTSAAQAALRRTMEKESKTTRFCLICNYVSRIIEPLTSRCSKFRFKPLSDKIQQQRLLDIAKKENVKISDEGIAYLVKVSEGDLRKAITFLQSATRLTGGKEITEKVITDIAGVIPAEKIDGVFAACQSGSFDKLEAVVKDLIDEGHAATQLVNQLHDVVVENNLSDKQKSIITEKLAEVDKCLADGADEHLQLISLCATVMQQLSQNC
# T2 sequence (P40937 whole entry, further chain): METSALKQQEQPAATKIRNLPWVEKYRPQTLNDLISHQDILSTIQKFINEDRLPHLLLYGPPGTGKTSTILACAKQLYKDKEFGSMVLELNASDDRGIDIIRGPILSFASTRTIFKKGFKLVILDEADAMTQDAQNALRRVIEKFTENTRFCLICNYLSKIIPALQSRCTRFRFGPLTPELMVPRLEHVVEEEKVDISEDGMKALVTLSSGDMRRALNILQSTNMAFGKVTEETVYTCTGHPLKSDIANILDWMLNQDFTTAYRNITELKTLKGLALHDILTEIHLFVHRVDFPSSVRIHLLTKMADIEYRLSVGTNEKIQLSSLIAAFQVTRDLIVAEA
# T1 sequence (O75943 whole entry): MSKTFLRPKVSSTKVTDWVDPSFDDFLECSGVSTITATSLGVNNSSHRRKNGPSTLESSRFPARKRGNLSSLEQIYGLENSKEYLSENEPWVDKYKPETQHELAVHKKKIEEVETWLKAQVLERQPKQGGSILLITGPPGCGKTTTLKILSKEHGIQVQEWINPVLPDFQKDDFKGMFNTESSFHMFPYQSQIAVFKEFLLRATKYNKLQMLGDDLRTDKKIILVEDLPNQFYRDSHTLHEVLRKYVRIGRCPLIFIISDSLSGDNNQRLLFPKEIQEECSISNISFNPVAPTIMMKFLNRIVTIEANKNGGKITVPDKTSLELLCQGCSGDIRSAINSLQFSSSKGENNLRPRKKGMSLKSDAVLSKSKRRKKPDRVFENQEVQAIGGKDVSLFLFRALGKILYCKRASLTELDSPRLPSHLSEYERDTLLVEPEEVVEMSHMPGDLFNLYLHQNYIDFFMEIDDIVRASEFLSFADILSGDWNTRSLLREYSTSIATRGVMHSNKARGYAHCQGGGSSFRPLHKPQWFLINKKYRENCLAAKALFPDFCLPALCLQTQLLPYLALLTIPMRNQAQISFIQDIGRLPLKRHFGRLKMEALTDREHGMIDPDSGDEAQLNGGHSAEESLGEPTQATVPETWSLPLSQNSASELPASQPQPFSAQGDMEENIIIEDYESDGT
# T1 sequence (P35250 whole entry, further chain): as the sequence (P35250 whole entry, further chain) above
# T1 sequence (P40938 whole entry, further chain): as the sequence (P40938 whole entry, further chain) above
# T1 sequence (P35249 whole entry, further chain): as the sequence (P35249 whole entry, further chain) above
# T1 sequence (P40937 whole entry, further chain): as the sequence (P40937 whole entry, further chain) above
structure (smiles),measurement,setting,value
"Nc1ncnc2c1ncn2[C@@H]1O[C@H](COP(=O)(O)OP(=O)(O)OP(O)(O)=S)[C@@H](O)[C@H]1O [ATPγS, adenosine 5′-O-3′-thiotriphosphate]","bead pull-down of clamp-clamp loader-DNA ternary complex, Western blot",[1],"in the presence of ATPγS ternary complex formation, but not clamp loading"
same,"bead pull-down of clamp-clamp loader-DNA ternary complex, Western blot",[2],ternary complex formation on both substrates in the presence of ATPγS was observed
